Measurements published in BigSolDB 2.1.

Cc1[nH]c(=O)c(C#N)cc1-c1ccncc1
solubility (mole fraction) (in DMF, 278.15 K): 7.95e-05
solubility (mole fraction) (in DMF, 283.15 K): 9.2e-05
solubility (mole fraction) (in DMF, 288.15 K): 0.000109
solubility (mole fraction) (in DMF, 293.15 K): 0.000129
solubility (mole fraction) (in DMF, 298.15 K): 0.000149
solubility (mole fraction) (in DMF, 303.15 K): 0.000173
solubility (mole fraction) (in DMF, 308.15 K): 0.000199
solubility (mole fraction) (in DMF, 313.15 K): 0.000225
solubility (mole fraction) (in DMF, 318.15 K): 0.000251
solubility (mole fraction) (in DMF, 323.15 K): 0.000285
solubility (mole fraction) (in ethanol, 278.15 K): 9.24e-06
solubility (mole fraction) (in ethanol, 283.15 K): 1.13e-05
solubility (mole fraction) (in ethanol, 288.15 K): 1.35e-05
solubility (mole fraction) (in ethanol, 293.15 K): 1.58e-05
solubility (mole fraction) (in ethanol, 298.15 K): 1.84e-05
solubility (mole fraction) (in ethanol, 303.15 K): 2.13e-05
solubility (mole fraction) (in ethanol, 308.15 K): 2.43e-05
solubility (mole fraction) (in ethanol, 313.15 K): 2.74e-05
solubility (mole fraction) (in ethanol, 318.15 K): 3.1e-05
solubility (mole fraction) (in ethanol, 323.15 K): 3.5e-05
solubility (mole fraction) (in ethylene glycol, 278.15 K): 1.72e-05
solubility (mole fraction) (in ethylene glycol, 283.15 K): 2.09e-05
solubility (mole fraction) (in ethylene glycol, 288.15 K): 2.46e-05
solubility (mole fraction) (in ethylene glycol, 293.15 K): 2.89e-05
solubility (mole fraction) (in ethylene glycol, 298.15 K): 3.37e-05
solubility (mole fraction) (in ethylene glycol, 303.15 K): 3.89e-05
solubility (mole fraction) (in ethylene glycol, 308.15 K): 4.4e-05
solubility (mole fraction) (in ethylene glycol, 313.15 K): 5.03e-05
solubility (mole fraction) (in ethylene glycol, 318.15 K): 5.66e-05
solubility (mole fraction) (in ethylene glycol, 323.15 K): 6.44e-05
solubility (mole fraction) (in isopropanol, 278.15 K): 2.44e-05
solubility (mole fraction) (in isopropanol, 283.15 K): 2.89e-05
solubility (mole fraction) (in isopropanol, 288.15 K): 3.43e-05
solubility (mole fraction) (in isopropanol, 293.15 K): 4.03e-05
solubility (mole fraction) (in isopropanol, 298.15 K): 4.73e-05
solubility (mole fraction) (in isopropanol, 303.15 K): 5.4e-05
solubility (mole fraction) (in isopropanol, 308.15 K): 6.16e-05
solubility (mole fraction) (in isopropanol, 313.15 K): 7.07e-05
solubility (mole fraction) (in isopropanol, 318.15 K): 7.92e-05
solubility (mole fraction) (in isopropanol, 323.15 K): 9.02e-05
solubility (mole fraction) (in water, 278.15 K): 4.99e-07
solubility (mole fraction) (in water, 283.15 K): 5.98e-07
solubility (mole fraction) (in water, 288.15 K): 7.1e-07
solubility (mole fraction) (in water, 293.15 K): 8.34e-07
solubility (mole fraction) (in water, 298.15 K): 9.77e-07
solubility (mole fraction) (in water, 303.15 K): 1.12e-06
solubility (mole fraction) (in water, 308.15 K): 1.27e-06
solubility (mole fraction) (in water, 313.15 K): 1.44e-06
solubility (mole fraction) (in water, 318.15 K): 1.64e-06
solubility (mole fraction) (in water, 323.15 K): 1.85e-06
